Results reported in ChEMBL document CHEMBL5050844 (2019).

Key:
[1] = target: T1, E3 ubiquitin-protein ligase CBL-B (Homo sapiens, UniProt Q13191); test: Inhibition of N-terminal Avi-tagged human CBL-B (36 to 427 residues) incubated with 60 nM Src kinase for 1.5 hrs followed by incubation with fluorescently labeled UbcH5B-Ub for 1 hr and measured by TR-FRET assay; type: single protein
[2] = target: T1, E3 ubiquitin-protein ligase CBL-B; test: Binding affinity towards N-terminal biotinylated Avi-tagged human CBL-B (36 to 427 residues) measured by surface plasmon resonance assay
[3] = Induction of anti-CD3/CD28 antibodies-stimulated human T cell activation at 4 uM assessed fold increase in IL-2 secretion measured by ELISA assay; type: functional, T cell line
[4] = Induction of anti-CD3/CD28 antibodies-stimulated human T cell activation at 1 uM assessed fold increase in IL-2 secretion measured by ELISA assay; type: functional, T cell line
[5] = Induction of anti-CD3/CD28 antibodies-stimulated human T cell activation at 0.3 uM assessed fold increase in IL-2 secretion measured by ELISA assay; type: functional, T cell line
[6] = Induction of anti-CD3 antibodies-stimulated human T cell activation at 8 uM assessed fold increase in IL-2 secretion measured by ELISA assay; type: functional, T cell line; note: reference of the scale not given here
[7] = Induction of anti-CD3 antibodies-stimulated human T cell activation at 1 uM assessed fold increase in IL-2 secretion measured by ELISA assay; type: functional, T cell line; note: reference of the scale not given here
[8] = Induction of anti-CD3/CD28 antibodies-stimulated human T cell activation at 4 uM assessed fold increase in CD25 expression measured by ELISA assay; type: functional, T cell line
[9] = Induction of anti-CD3/CD28 antibodies-stimulated human T cell activation at 1 uM assessed fold increase in CD25 expression measured by ELISA assay; type: functional, T cell line
[10] = Induction of anti-CD3/CD28 antibodies-stimulated human T cell activation at 0.3 uM assessed fold increase in CD25 expression measured by ELISA assay; type: functional, T cell line
[11] = Induction of anti-CD3 antibodies-stimulated human T cell activation at 8 uM assessed fold increase in CD25 expression measured by ELISA assay; type: functional, T cell line; note: reference of the scale not given here
[12] = Induction of anti-CD3 antibodies-stimulated human T cell activation at 1 uM assessed fold increase in CD25 expression measured by ELISA assay; type: functional, T cell line; note: reference of the scale not given here
[13] = Induction of anti-CD3 antibodies-stimulated human CD4+ T cell activation in immunocompetent mouse assessed fold increase in CD25 expression at 45 mg/kg, ip administered twice a day; type: functional; note: reference of the scale not given here
[14] = Induction of anti-CD3 antibodies-stimulated human CD4+ T cell activation in immunocompetent mouse assessed fold increase in CD25 expression at 45 mg/kg, po administered twice a day; type: functional; note: reference of the scale not given here
[15] = Induction of anti-CD3 antibodies-stimulated human CD4+ T cell activation in immunocompetent mouse assessed fold increase in CD25 expression at 90 mg/kg, po administered twice a day; type: functional; note: reference of the scale not given here
[16] = Induction of anti-CD3 antibodies-stimulated human CD4+ T cell activation in immunocompetent mouse assessed fold increase in CD25 expression at 135 mg/kg, po administered twice a day; type: functional; note: reference of the scale not given here
[17] = Induction of anti-CD3 antibodies-stimulated human CD4+ T cell activation in immunocompetent mouse assessed fold increase in CD25 expression at 180 mg/kg, po administered twice a day; type: functional; note: reference of the scale not given here
[18] = Induction of anti-CD3 antibodies-stimulated human CD8+ T cell activation in immunocompetent mouse assessed fold increase in CD25 expression at 45 mg/kg, ip administered twice a day; type: functional; note: reference of the scale not given here
[19] = Induction of anti-CD3 antibodies-stimulated human CD8+ T cell activation in immunocompetent mouse assessed fold increase in CD25 expression at 90 mg/kg, po administered twice a day; type: functional; note: reference of the scale not given here
[20] = Induction of anti-CD3 antibodies-stimulated human CD8+ T cell activation in immunocompetent mouse assessed fold increase in CD25 expression at 135 mg/kg, po administered twice a day; type: functional; note: reference of the scale not given here
[21] = Induction of anti-CD3 antibodies-stimulated human CD8+ T cell activation in immunocompetent mouse assessed fold increase in CD25 expression at 180 mg/kg, po administered twice a day; type: functional; note: reference of the scale not given here
[22] = Induction of activation of human CD56+ CD3- NK cells co-cultured with human K562 cells in 5:1 ratio and assessed as increase in IFN-gamma secretion at 10 uM measured by ELISA assay; type: functional, Natural killer cell
[23] = Induction of activation of human CD56+ CD3- NK cells co-cultured with human K562 cells in 5:1 ratio and assessed as increase in IFN-gamma secretion at 1 uM measured by ELISA assay; type: functional, Natural killer cell
[24] = Induction of activation of human CD56+ CD3- NK cells co-cultured with human K562 cells in 1:1 ratio and assessed as increase in IFN-gamma secretion at 10 uM measured by ELISA assay; type: functional, Natural killer cell
[25] = Induction of activation of human CD56+ CD3- NK cells co-cultured with human K562 cells in 1:1 ratio and assessed as increase in IFN-gamma secretion at 1 uM measured by ELISA assay; type: functional, Natural killer cell
[26] = Induction of activation of human CD56+ CD3- NK cells co-cultured with human K562 cells in 5:1 ratio and assessed as increase in TNF-alpha secretion at 10 uM measured by ELISA assay; type: functional, Natural killer cell
[27] = Induction of activation of human CD56+ CD3- NK cells co-cultured with human K562 cells in 5:1 ratio and assessed as increase in TNF-alpha secretion at 1 uM measured by ELISA assay; type: functional, Natural killer cell
[28] = Induction of activation of human CD56+ CD3- NK cells co-cultured with human K562 cells in 1:1 ratio and assessed as increase in TNF-alpha secretion at 10 uM measured by ELISA assay; type: functional, Natural killer cell
[29] = Induction of activation of human CD56+ CD3- NK cells co-cultured with human K562 cells in 1:1 ratio and assessed as increase in TNF-alpha secretion at 1 uM measured by ELISA assay; type: functional, Natural killer cell
[30] = Induction of activation of human CD56+ CD3- NK cells co-cultured with human K562 cells in 5:1 ratio and assessed as increase in MIP1beta secretion at 10 uM measured by ELISA assay; type: functional, Natural killer cell
[31] = Induction of activation of human CD56+ CD3- NK cells co-cultured with human K562 cells in 5:1 ratio and assessed as increase in MIP1beta secretion at 1 uM measured by ELISA assay; type: functional, Natural killer cell
[32] = Induction of activation of human CD56+ CD3- NK cells co-cultured with human K562 cells in 1:1 ratio and assessed as increase in MIP1beta secretion at 10 uM measured by ELISA assay; type: functional, Natural killer cell
[33] = Induction of activation of human CD56+ CD3- NK cells co-cultured with human K562 cells in 1:1 ratio and assessed as increase in MIP1beta secretion at 1 uM measured by ELISA assay; type: functional, Natural killer cell
[34] = Induction of anti-CD3 antibodies-stimulated human CD4+ T cell activation in immunocompetent mouse assessed fold increase in CD25 expression at 90 mg/kg, ip administered twice a day; type: functional; note: reference of the scale not given here
[35] = Induction of anti-CD3 antibodies-stimulated human CD8+ T cell activation in immunocompetent mouse assessed fold increase in CD25 expression at 90 mg/kg, ip administered twice a day; type: functional; note: reference of the scale not given here

T1 sequence (Q13191 whole entry, the tested form may be a part): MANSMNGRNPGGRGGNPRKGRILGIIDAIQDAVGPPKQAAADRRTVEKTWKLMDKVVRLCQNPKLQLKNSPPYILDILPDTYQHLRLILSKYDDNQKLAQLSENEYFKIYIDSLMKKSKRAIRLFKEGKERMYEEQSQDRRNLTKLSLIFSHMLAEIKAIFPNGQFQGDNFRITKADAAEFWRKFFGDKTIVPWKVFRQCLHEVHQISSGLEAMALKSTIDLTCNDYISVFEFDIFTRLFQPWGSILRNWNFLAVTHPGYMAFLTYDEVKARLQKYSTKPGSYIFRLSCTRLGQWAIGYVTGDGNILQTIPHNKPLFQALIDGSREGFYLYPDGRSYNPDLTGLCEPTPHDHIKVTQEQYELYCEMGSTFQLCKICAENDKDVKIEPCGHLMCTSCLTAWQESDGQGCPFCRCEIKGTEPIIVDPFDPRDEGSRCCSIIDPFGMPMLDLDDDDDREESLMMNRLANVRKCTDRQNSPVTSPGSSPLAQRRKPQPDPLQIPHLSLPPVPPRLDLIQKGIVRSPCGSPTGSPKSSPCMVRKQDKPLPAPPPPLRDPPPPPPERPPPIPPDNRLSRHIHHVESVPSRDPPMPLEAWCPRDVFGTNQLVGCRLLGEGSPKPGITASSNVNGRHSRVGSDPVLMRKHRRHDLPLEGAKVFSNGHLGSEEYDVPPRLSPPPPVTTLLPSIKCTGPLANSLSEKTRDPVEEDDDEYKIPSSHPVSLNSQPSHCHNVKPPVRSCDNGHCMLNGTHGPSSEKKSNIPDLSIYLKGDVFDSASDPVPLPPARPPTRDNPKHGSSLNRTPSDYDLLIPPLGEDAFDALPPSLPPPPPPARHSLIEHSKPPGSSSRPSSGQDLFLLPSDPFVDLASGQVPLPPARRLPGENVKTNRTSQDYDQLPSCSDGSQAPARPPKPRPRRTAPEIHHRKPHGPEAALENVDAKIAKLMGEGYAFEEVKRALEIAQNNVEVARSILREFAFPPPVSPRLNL

Structure (SMILES)	fold change (FC) [3]	fold change (FC) [4]	fold change (FC) [5]	fold change (FC) [6]	fold change (FC) [7]	fold change (FC) [8]	fold change (FC) [9]	fold change (FC) [10]	fold change (FC) [11]	fold change (FC) [12]	fold change (FC) [22]	fold change (FC) [23]	fold change (FC) [24]	fold change (FC) [25]	fold change (FC) [26]	fold change (FC) [27]	fold change (FC) [28]	fold change (FC) [29]	fold change (FC) [30]	fold change (FC) [31]	further results
C[C@H](Cc1nncn1C)c1cccc(NC(=O)c2cc(C3CC3)cc(C(F)(F)F)n2)c1	>=7.5	5	2.51	>=0.201	>=0.201	1.51	1.51	1.31	>=1.001	>=1.001	>=5	2.01	2.01	2.01	2.01	2.01	1.01	2.01	1.01	1.01	IC50 [1]: < 100 nM; Kd [2]: < 100 nM; fold change (FC) [13]: 1.51; fold change (FC) [14]: 1; fold change (FC) [15]: 1; fold change (FC) [16]: 2.01; fold change (FC) [17]: 1; fold change (FC) [18]: 1; fold change (FC) [19]: 1; fold change (FC) [20]: 1; fold change (FC) [21]: 1; fold change (FC) [32]: 1.01; fold change (FC) [33]: 1.01
C[C@H](Cc1nncn1C)c1cccc(NC(=O)c2ccnc(C(F)(F)F)n2)c1	>=7.5	2.51	1.01	>=0.201	>=0.201	>=1.76	>=1.76	1.51	>=1.001	0.801	>=5	2.01	2.01	1.01	>=5	2.01	2.01	<=1	2.01	1.01	fold change (FC) [34]: 1.51; fold change (FC) [35]: 1; fold change (FC) [32]: 2.01; fold change (FC) [33]: 1.01
